In patent US4921850A, “3-propenylcephem derivative” (Eisai Co., Ltd., priority 1986, dated 1990):
≈ marks a conversion by molar mass, not a printed value.

Assays:
Assay in all cases: Anti-bacterial activity (MIC), agar dilution
Assay type in all cases: cell-based
[1] = test system: Morganella morganii EP-14; details: Morganella morganii, EP14, 18 h, about 10^6 CFU/ml, 37° C., read-out: MIC
In short: (§1)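 Read-out is MIC (μg/ml) after 18 hours at 37° C on Mueller-Hinton agar with twofold antibiotic series. Inoculum: overnight broth cultures diluted to ~10^6 CFU/ml, spotted.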

Ser. marcescens ES-75 = details: Serratia marcescens, ES75, 18 h, Ser. marcescens ES-75; agar dilution, about 10^6 CFU/ml, 18 hours, 37° C.; read-out: MIC
In short: as §1

Kleb. pneumoniae EK-6 = details: Klebsiella pneumoniae, EK6, 18 h, Kleb. pneumoniae EK-6; agar dilution, about 10^6 CFU/ml, 18 hours, 37° C.; read-out: MIC
In short: as §1

Escher. coli NIHJ = details: Escherichia coli, 18 h, Escher. coli NIHJ; agar dilution, about 10^6 CFU/ml, 18 hours, 37° C.; read-out: MIC
In short: as §1

Pseud. aeruginosa EP-01 = details: Pseudomonas aeruginosa, EP01, 18 h, Pseud. aeruginosa EP-01; agar dilution, about 10^6 CFU/ml, 18 hours, 37° C.; read-out: MIC
In short: as §1

Staph. aureus 209-P = details: Staphylococcus aureus, 209P, 18 h, Staph. aureus 209-P; agar dilution, about 10^6 CFU/ml, 18 hours, 37° C.; read-out: MIC
In short: as §1

SMILES | MIC [1] [µg/mL] | MIC (Ser. marcescens ES-75) [µg/mL] | MIC (Kleb. pneumoniae EK-6) [µg/mL] | MIC (Escher. coli NIHJ) [µg/mL] | MIC (Pseud. aeruginosa EP-01) [µg/mL] | MIC (Staph. aureus 209-P) [µg/mL]
C[N+]1(C/C=C/C2=C(C(=O)[O-])N3C(=O)[C@@H](NC(=O)/C(=N\OCF)c4nsc(N)n4)[C@H]3SC2)CCCN(C(N)=O)CC1 (stereo partly drawn) [Example 94] | ≤ 0.025 | ≤ 0.025 | ≤ 0.025 | ≤ 0.025 | 0.8 (≈ 1.34 µM) | 0.2 (≈ 0.335 µM)
C[N+](C)(C/C=C/C1=C(C(=O)[O-])N2C(=O)[C@@H](NC(=O)/C(=N\OCF)c3nsc(N)n3)[C@H]2SC1)C(CO)CO [Example 95] | ≤ 0.025 | ≤ 0.025 | ≤ 0.025 | 0.05 (≈ 0.0893 µM) | 0.8 (≈ 1.43 µM) | 0.2 (≈ 0.357 µM)
CNC(=O)CC[N+](C)(C)C/C=C/C1=C(C(=O)[O-])N2C(=O)[C@@H](NC(=O)/C(=N\OCF)c3nsc(N)n3)[C@H]2SC1 [Example 97] | ≤ 0.025 | ≤ 0.025 | ≤ 0.025 | ≤ 0.025 | 0.8 (≈ 1.4 µM) | 0.2 (≈ 0.35 µM)
CN(C)C(=O)CC[N+](C)(C)C/C=C/C1=C(C(=O)[O-])N2C(=O)[C@@H](NC(=O)/C(=N\OCF)c3nsc(N)n3)[C@H]2SC1 [Example 98] | ≤ 0.025 | 0.05 (≈ 0.0855 µM) | 0.05 (≈ 0.0855 µM) | 0.05 (≈ 0.0855 µM) | 3.13 (≈ 5.35 µM) | 0.4 (≈ 0.684 µM)
COCC[N+](C)(C)C/C=C/C1=C(C(=O)[O-])N2C(=O)[C@@H](NC(=O)/C(=N\OCF)c3nsc(N)n3)[C@H]2SC1 [Example 99] | ≤ 0.025 | ≤ 0.025 | ≤ 0.025 | ≤ 0.025 | 1.56 (≈ 2.87 µM) | 0.2 (≈ 0.368 µM)
NC(=O)N1CCC[N+](C/C=C/C2=C(C(=O)[O-])N3C(=O)[C@@H](NC(=O)/C(=N\OCF)c4nsc(N)n4)[C@H]3SC2)(CCO)CC1 (stereo partly drawn) [Example 101] | ≤ 0.025 | ≤ 0.025 | ≤ 0.025 | 0.05 (≈ 0.0797 µM) | 1.56 (≈ 2.49 µM) | 0.2 (≈ 0.319 µM)
C[N+](C)(C/C=C/C1=C(C(=O)[O-])N2C(=O)[C@@H](NC(=O)/C(=N\OCF)c3nsc(N)n3)[C@H]2SC1)Cc1ccn[nH]1 [Example 102] | ≤ 0.025 | 0.05 (≈ 0.0884 µM) | ≤ 0.025 | ≤ 0.025 | 1.56 (≈ 2.76 µM) | 0.2 (≈ 0.354 µM)
Nc1ccc[n+](C/C=C/C2=C(C(=O)[O-])N3C(=O)[C@@H](NC(=O)/C(=N\OCF)c4nsc(N)n4)[C@H]3SC2)c1 [Example 103] | ≤ 0.025 | ≤ 0.025 | ≤ 0.025 | ≤ 0.025 | 3.13 (≈ 5.86 µM) | 0.1 (≈ 0.187 µM)
C[N+](C)(C/C=C/C1=C(C(=O)[O-])N2C(=O)[C@@H](NC(=O)/C(=N\OCF)c3nsc(N)n3)[C@H]2SC1)Cc1cnc[nH]1 [Example 106] | 0.05 (≈ 0.0884 µM) | 0.1 (≈ 0.177 µM) | 0.05 (≈ 0.0884 µM) | ≤ 0.025 | 3.13 (≈ 5.53 µM) | 0.4 (≈ 0.707 µM)
Nc1nc(/C(=N/OCF)C(=O)N[C@@H]2C(=O)N3C(C(=O)[O-])=C(/C=C/C[N+](N)(CCO)CCO)CS[C@H]23)ns1 [Example 107] | ≤ 0.025 | 0.05 (≈ 0.0892 µM) | ≤ 0.025 | 0.05 (≈ 0.0892 µM) | 1.56 (≈ 2.78 µM) | 0.2 (≈ 0.357 µM)
Nc1nc(/C(=N/OCF)C(=O)N[C@@H]2C(=O)N3C(C(=O)[O-])=C(/C=C/C[n+]4ccc(C(=O)N5CCOCC5)cc4)CS[C@H]23)ns1 [Example 108] | 0.05 (≈ 0.079 µM) | 0.1 (≈ 0.158 µM) | ≤ 0.025 | 0.05 (≈ 0.079 µM) | 3.13 (≈ 4.95 µM) | 0.4 (≈ 0.632 µM)
C[N+](C)(C/C=C/C1=C(C(=O)[O-])N2C(=O)[C@@H](NC(=O)/C(=N\OC(F)F)c3nsc(N)n3)[C@H]2SC1)CC(N)=O [Example 114, 7β-[2-(5-Amino-1,2,4-thiadiazol-3-yl)-(Z)-2-difluoromethoxyiminoacetamido]-3-[(E)-3-(dimethylcarbamoylmethylammonio)-1-propen-1-yl]-3-cephem-4-carboxylate] | ≤ 0.025 | 0.05 (≈ 0.0892 µM) | ≤ 0.025 | 0.05 (≈ 0.0892 µM) | 0.8 (≈ 1.43 µM) | 0.2 (≈ 0.357 µM)
Nc1nc(/C(=N/OC(F)F)C(=O)N[C@@H]2C(=O)N3C(C(=O)[O-])=C(/C=C/C[n+]4ccc(C(=O)O)cc4)CS[C@H]23)ns1 [Example 115] | ≤ 0.025 | 0.05 (≈ 0.086 µM) | ≤ 0.025 | ≤ 0.025 | 3.13 (≈ 5.38 µM) | 0.8 (≈ 1.38 µM)
Nc1nc(/C(=N/OC(F)F)C(=O)N[C@@H]2C(=O)N3C(C(=O)[O-])=C(/C=C/C[N+]45CCN(CC4)CC5)CS[C@H]23)ns1 [Example 116] | ≤ 0.025 | ≤ 0.025 | ≤ 0.025 | ≤ 0.025 | 1.56 (≈ 2.73 µM) | 0.2 (≈ 0.351 µM)
